Tests used:
[1] = test system: prechordal plate cells; assay: Prechordal plate cell migration and protrusions in morpholino-injected zebrafish embryos; format: in vivo
Source text: FIG. 17: Arpin regulates protrusion frequency of prechordal plate cells and their collective migration in zebrafish embryos. a, In situ hybridisation of arpin probe in zebrafish embryos at different stages. arpin mRNAs are maternally deposited. During gastrulation, arpin is expressed in hypoblast, which includes the prechordal plate. b, 3D trajectories of prechordal plate cells in embryos injected with control or arpin morpholino. During fish gastrulation, prechordal plate cells migrate collectively in a straight direction from the margin of the embryo towards the animal pole^32,33. […] Lateral displacement is the cell movement perpendicular to main direction of the migration. Distance between cells refers to the average distance of the nucleus of a given cell to the nuclei of its 5 closest neighbors. Mean±sem; n≧1469; *** P<0.001, t-test. c, At the onset of gastrulation prechordal plate cells derived from morpholino injected embryos were transplanted into the prechordal plate of an untreated host embryo at the same stage in order to allow imaging of cell autonomous effects on protrusion formation. Donor embryos are injected with control or arpin morpholinos and mRNAs encoding Lifeact-mCherry as well as GFP-Arpin for the rescue. Time lapse imaging of injected cells is performed by epifluorescence to reveal Lifeact a marker of filamentous actin, which stains actin-based protrusions. […]

[2] = test system: Arp2/3 complex; assay: Competition pulldown: HeLa cell extract and GST N-WASP VCA immobilized on glutathione beads; format: binding; details: 5 μM GST N-WASP VCA; Arpin/ArpinΔA 18 μM, ArpinA 304 μM and serial 2-fold dilutions
Procedure: (§1) FIG. 1: Arpin inhibits Arp2/3 activation in vitro. a, Alignment of acidic C-termini of 3 NPFs and of Arpin. […] Pulldown was performed with HeLa cell extract and GST fusions of Arpin full length (FL), Arpin deleted of its last 16 amino-acids (ΔA), the last 16 amino-acids (A) or the VCA domain of N-WASP as a positive control. Arp2/3 binding was assessed by western blot against the ArpC2 subunit. c, Spectrofluorimetry assay to monitor actin polymerisation.
(§2) Arp2/3 is displaced from its interaction with 5 μM GST N-WASP VCA immobilized on glutathione beads by the Arpin Acidic peptide (304 μM and serial 2-fold dilutions).
(§3) 6. GST Pull Down, Immunoprecipitations, SDS-PAGE and Western Blots HeLa cells were lysed in 50 mM Tris-HCl, 150 mM NaCl, 1 mM EDTA, 1 mM DTT, 0.5% Triton-X100, 5% glycerol, pH 7.5. 20 μg of GST fusion protein associated with 20 μl of glutathione sepharose 4B beads (GE […]) were incubated with 1 ml of HeLa cell extracts for 2 h at 4° C. Beads were washed and analysed by western blot.

[3] = test system: trout keratocytes; assay: Microinjection of purified protein into migrating fish keratocytes; format: cell-based, brook trout (Salvelinus fontinalis); details: injected fish keratocytes; for turning (direction autocorrelation): n≧8, P<0.05 between 16 and 272 s
Source text: FIG. 24: Arpin microinjection induces fish keratocyte to turn. a, Trout keratocytes were micro-injected with purified full length Arpin, ArpinΔA or buffer as control. Upon micro-injection of Arpin, lamellipodia were modified and the cells turned. Scale bar, 20 μm. b, Quantifications of the indicated parameters. Mean±sem; n≧8, * P<0.05, *** P<0.001, ANOVA. c, Kymograph of the Arpin microinjected keratocyte. The leading edge undergoes cycles of protrusions and retractions. d, Model. Directional persistence of migration in this cell system requires a positive feedback loop. Branched actin is sensed and activates Rac as a response. In this context, WAVE closes a positive feedback loop. In contrast, Arpin closes a negative feedback loop. These two nested positive and negative feedback loops can account for the oscillatory behavior of the leading edge observed upon Arpin micro-injection.
FIG. 25: Procedures to quantify fish keratocyte migration. a, Kymograph analysis. Lamellipodial dynamics were studied along a one-pixel-wide line oriented in the direction of protrusions, using the MultiKymograph plug-in in ImageJ. Protrusion velocity was the average of all protrusion slopes at the front of the cell. Projections along the distance axis and the time axis, gave, respectively, length and duration of the protrusion. Cell speed was determined using the slope of the dashed line indicating the rear of the cell. b, Outline analysis. Cell contours were defined using CellTrack software (http://db.cse.ohio-state.edu/CellTrack) and manually adjusted when necessary. The cell from frame t is overlayed with the same cell in frame t+100 s, using their center of mass as a reference. The non-overlapping areas are summed up to give the cell deformation between these two frames. […]
Keratocytes were isolated from scales of freshly killed brook trout (Salvelinus fontinalis) as previously described^41 and imaged by phase contrast on an inverted Zeiss Axioscope using ×63 optics, and a halogen lamp as light source. […] Contours were analysed using the CellTrack software (OHIO STATE UNIVERSITY). […]

[4] = test system: Arp2/3 complex; assay: Pyrene-actin polymerisation assay (spectrofluorimetry); format: biochemical; details: for inhibition of VCA-activated Arp2/3 actin polymerisation: 2 μM actin (10% pyrene-labelled), 500 nM VCA, 20 nM Arp2/3
Procedure: as §1
Conditions: 2 μM Actin (10% pyrene-labelled), 20 nM Arp2/3, 500 nM Scar VCA, 5 μM Arpin.
FIG. 8: Determination of apparent Kd from Arpin inhibition of Arp2/3 nucleation. a, Arpin inhibits Arp2/3 activation in the pyrene-actin assay.
as §2
(§4) Pyrene actin assays and monitoring of the branching reaction were performed as described in reference 38 with the conditions described in figure legends. VCA refers to the VCA domain of WAVE1 purified as described^39.

[5] = test system: Arp2/3 complex; assay: Fluorescence anisotropy based determination of Kd (labelled ArpinA peptide, purified Arp2/3 complex); format: binding; details: for displacement of labelled ArpinA peptide bound to the Arp2/3 complex: titration of labelled ArpinA peptide/Arp2/3 complex with purified protein
Procedure: FIG. 5: Arpin directly binds to the Arp2/3 complex with a dissociation constant of 200 nM. a, Fluorescence anisotropy measurements of labelled ArpinA peptide binding at equilibrium to the purified Arp2/3 complex at the indicated concentrations. b, Labelled ArpinA peptide bound to the Arp2/3 complex was then titrated with purified Arpin FL, ArpinΔA or unlabelled ArpinA peptide as indicated. […] Curves that best fit the values yield the indicated equilibrium constants.
The ArpinA peptide was synthesized and labelled with 5-TAMRA at the N-terminus (PROTEOGENIX). The peptide was excited with polarised light at 549 nm and emitted light was detected at 573 nm using a MOS450 fluorimeter (BIOLOGIC). Measurements were made for 60 s at 1 point/s and the average anisotropy was calculated with the Biologic software. Fits were performed as described in reference 40.

[6] = test system: Arp2/3 complex; assay: GST fusion pulldown of Arp2/3 from HeLa cell extract (western blot against ArpC2); format: binding; details: GST fusions
Procedure: as §1, §3

[7] = test system: MDA-MB-231 cells; assay: Electroporation of MDA-MB-231 cells with purified Arpin; analysis of cell migration; format: cell-based, human
Source text: FIG. 27: Electroporation of MDA-MB-231 cells with purified Arpin; analysis of cell migration.
Purified recombinant Arpin can be introduced efficiently into various cell types by electroporation as shown in FIG. 26 with retinal pigment epithelial (RPE-I) cells, mouse embryonic fibroblasts (MEFs) and breast invasive human cell line MDA-MB-231. MDA-MB-231 cells depleted of Arpin migrates faster and more directionally than their respective non-targeting controls (shCtrl).

[8] = test system: Arp2/3 complex; assay: Assembly of branched actin networks monitored by TIRF microscopy; format: biochemical; details: 1 μM actin, 150 nM VCA, 80 nM Arp2/3, Arpin at 5 μM; 5, 10, 15 and 20 min
Procedure: as §1
FIG. 10: Quantification of Arpin inhibition on the generation of branched actin networks. Conditions as in FIG. 1d. Images were extracted from the TIRF movies, 5, 10, 15 and 20 min after initiation of the reaction. The number of branches and filaments were counted and the ratio determined.
as §4

## GTTGTCATAAATACGACTCATCTTC (all phosphorodiamidate morpholino (PMO)) [arpin morpholino]
[1]; embryos injected with control or arpin morpholino, n≧1469, P<0.001
  dispersion of prechordal plate cells (lateral displacement, distance between cells): induces dispersion as evidenced by increased lateral cell displacement and a higher distance between cells
[1]; transplanted prechordal plate cells from morpholino injected embryos, P<0.05
  probability of presence of protrusions and their duration: increases the probability of presence of protrusions

## ArpinΔA: Arpin deleted of its last 16 amino-acids (residues 1-210); human or zebrafish recombinant
[2]
  competition with the NPF (VCA) for Arp2/3 binding: not
[3]
  turning (direction autocorrelation): turn more than wild type but less than wild type Arpin injected keratocytes
[4]
  inhibition of VCA-activated Arp2/3 actin polymerisation: not
[5]
  displacement of labelled ArpinA peptide bound to the Arp2/3 complex: unable to displace the ArpinA peptide

## Arpin: protein of SEQ ID NO: 1, product of human C15orf38 gene (residues 1-226); new inhibitor of the Arp2/3 complex
[2]
  competition with the NPF (VCA) for Arp2/3 binding: Arp2/3 is displaced from its interaction with the VCA
[6]
  Arp2/3 binding in pulldown: binds to the Arp2/3 complex through its acidic C-terminal region
[7]; Arpin-depleted MDA-MB-231 cells electroporated with purified Arpin
  speed and persistence of migration: speed and persistence decreased
[7]; MDA-MB-231 cells electroporated with Arpin protein
  idling (active movement): more idling (less active movement)
[8]
  frequency of branches in actin networks (ratio branches/filaments): decreases the frequency of branches in actin networks
[3]; n≧8, P<0.001
  territory explored (Mean Square Displacement): explore a smaller territory than the controls
[3]
  turning (direction autocorrelation): turn more than wild type
[4]; 2 μM Actin (10% pyrene-labelled), 20 nM Arp2/3, 500 nM Scar VCA, 5 μM Arpin
  effect on spontaneous actin nucleation and activation of the Arp2/3 complex: does not affect spontaneous actin nucleation and does not activate the Arp2/3 complex
[4]
  inhibition of VCA-activated Arp2/3 actin polymerisation: inhibited actin polymerisation in a dose-dependent manner
[4]; in a mixture including actin and the VCA, best fit of number of actin barbed ends, read-out: apparent Kd for the Arp2/3 complex from inhibition of Arp2/3 nucleation
  Kd: 760 ± 156 nM
[5]; fluorescence anisotropy, purified Arp2/3 complex, read-out: dissociation constant for binding to the Arp2/3 complex
  Kd: 200 nM
[5]
  displacement of labelled ArpinA peptide bound to the Arp2/3 complex: displaces the labelled ArpinA peptide more efficiently than the A peptide

## ArpinA: ArpinA peptide, residues 211-226 of full length Arpin (last 16 amino-acids, EIREQGDGAEDEEWDD)
[2]
  competition with the NPF (VCA) for Arp2/3 binding: competes with the NPF for Arp2/3 binding
[4]
  inhibition of VCA-activated Arp2/3 actin polymerisation: inhibits Arp2/3 activation in a dose dependent manner
[4]; listed as Acidic peptide
  inhibition of VCA-activated Arp2/3 actin polymerisation: sufficient for this inhibition, although it was less effective than full length Arpin

Source: patent US20160199445A1, “USE OF ARPIN A NEW INHIBITOR OF THE ARP2/3 COMPLEX FOR THE DIAGNOSIS AND TREATMENT OF DISEASES” (CENTRE NATIONAL DE LA RECHERCHE SCIENTIFIQUE, priority 2013, published 2016)
